Assay results from patent US20250205198A1, “METHODS FOR DELIVERY OF PSYCHEDELIC MEDICATIONS BY INHALATION AND SYSTEMS FOR PERFORMING THE METHODS” (Cybin IRL Limited, priority 2022, published 2025).

Columns and labels:
[1] = Plasma pharmacokinetics after oral gavage co-administration of DMT and DMT-d10 to male rats (Group 2); details: for bioavailability / AUC(0-t): male, Sprague Dawley, rat, po, 10 mg/kg; for bioavailability / AUC(0-t) / AUC0-1/dose: plasma; for time of peak plasma concentration postdose: oral administration 10 mg/kg; for AUC0-1/dose: dose normalized
[2] = Plasma pharmacokinetics after intravenous (bolus) co-administration of DMT and DMT-d10 to male rats (Group 4); details: for AUC0-1/dose: dose normalized; for t1/2: calculated 0.083 to 1.0 hr
[3] = Brain pharmacokinetics and brain to plasma ratio after intravenous (bolus) co-administration of DMT and DMT-d10 to male rats (Group 4); details: for Kp: male, Sprague Dawley, rat, iv, 1 mg/kg
[4] = Plasma pharmacokinetics after 20-minute snout-only inhalation (nebulized aerosol) co-administration of DMT and DMT-d10 to male rats (Group 6); details: for mean residence time (MRT) after inhalation compared to IV administration, fold greater: inhalation vs IV; for time of highest plasma concentration (first time point taken): after start of inhalation; for AUC0-1/dose: dose normalized
[5] = AUC0-t, male rats, oral gavage (OG) 10 mg/kg, co-administered
[6] = male, Sprague Dawley, rat, plasma, iv, 1 mg/kg
[7] = plasma, male rats, IV bolus 1 mg/kg, co-administered
[8] = summary table, plasma, intravenous 1 mg/kg
[9] = brain, male rats, IV bolus 1 mg/kg, co-administered
[10] = plasma, inhalation 14.3 mg/kg DMT, 15.5 mg/kg DMT-d10
[11] = plasma, male rats, inhalation 14.3 mg/kg DMT + 15.5 mg/kg DMT-d10
[12] = summary table, plasma, inhalation 14.3 mg/kg DMT, 15.5 mg/kg DMT-d10
[13] = male, Sprague Dawley, rat, plasma, inhaled or intranasal, 15.5 mg/kg

Row | SMILES | bioavailability [1] | AUC(0-t) [1, 5] | time of peak plasma concentration postdose [1] | AUC0-1/dose ([1]; oral 10 mg/kg) | time of highest plasma concentration (first time point taken) ([2]; IV bolus 1 mg/kg) | MRT last [2, 6] | AUC0-1/dose ([2]; plasma, intravenous 1 mg/kg) | AUC0-1 [2, 7] | AUC(0-t) [2, 7] | AUC0-1 [2, 8] | t1/2 [2, 8] | AUC0-t (brain) [3, 9] | Cmax (brain) [3, 9] | Kp ([3]; brain) | mean residence time (MRT) after inhalation compared to IV administration, fold greater [4] | time of highest plasma concentration (first time point taken) ([4]; inhalation) | AUC0-1/dose [4, 10] | AUC0-1 [4, 12] | also measured
1 | CN(C)CCc1c[nH]c2ccccc12 [DMT, N,N-dimethyltryptamine, reference compound] | 1.36% | 0.109 µg·h/mL | 1 h | 1.52 | 0.083 h | 12.7 min | 112 | 0.112 µg·h/mL | 0.112 µg·h/mL | 0.112 µg·h/mL | 10.3 min | 1060 ng·h/g | 3430 ng/g | 9.5 | approximately 5 × | 0.333 h | 18.2 | 0.26 µg·h/mL | AUC(0-t) ([1]; AUC0-1, plasma, male rats, oral gavage (OG) 10 mg/kg, co-administered): 0.0152 µg·h/mL; AUC(0-t) ([1]; AUC0-1, summary table, oral 10 mg/kg): 0.0152 µg·h/mL; half-life [2, 6]: 10.3 min; AUC0-inf [2, 7]: 0.114 µg·h/mL; AUC0-inf (brain) [3, 9]: 1070 ng·h/g; t1/2 (brain) ([3]; brain, male rats, IV bolus 1 mg/kg, calculated 0.25 to 1 hr): 9.3 min; AUC(0-t) [4, 11]: 0.308 µg·h/mL
2 | [2H]C([2H])([2H])N(C([2H])([2H])[2H])C([2H])([2H])C([2H])([2H])c1c[nH]c2ccccc12 [DMT-d10, 2-(1H-indol-3-yl)-N,N-bis(methyl-d3)ethan-1-amine-1,1,2,2-d4] | 1.16% | 0.0802 µg·h/mL | 1 h | 0.878 | 0.083 h | 19.6 min | 75.4 | 0.0754 µg·h/mL | 0.0754 µg·h/mL | 0.0754 µg·h/mL | 26.8 min | 931 ng·h/g | 1490 ng/g | 12.3 | approximately 5 × | 0.333 h | 17.0 | 0.264 µg·h/mL | improvement of duration of exposure (MRTlast) by deuteration ([2]; DMT-d10 vs. DMT, after IV): 54.5%; t1/2 ([2]; plasma, male rats, IV bolus 1 mg/kg): 26.8 min; improvement of brain to plasma (B/P) ratio by deuteration ([3]; DMT-d10 vs. DMT, IV 1 mg/kg): approximately 30%; improvement of duration of exposure (MRTlast) by deuteration ([4]; DMT-d10 vs. DMT, after inhalation): 24.6%; increase of inhalation bioavailability by deuteration ([4]; DMT-d10 vs. DMT, inhalation): approximately 40%; inhalation bioavailability, fold greater than oral bioavailability ([4]; inhalation vs oral): approximately 20 ×; AUC0-inf [4, 13]: 0.384 µg·h/mL; half-life [4, 13]: 325 min; AUC0-1 [4, 11]: 0.264 µg·h/mL; t1/2 ([4]; summary table, plasma, inhalation 15.5 mg/kg DMT-d10, calculated 0.333 to 3.333 hr): 325 min
